PubChem BioAssay (NCI)
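Tested at 5 concentrations; 48 h exposure; 96-well plates; endpoints linearly interpolated, else capped at highest concentration. TGI: total growth inhibition.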

Tests used:
Assay in all cases: inhibition of tumour cell growth, NCI panel, 48 h
786-0 renal = tested on: 786-0 renal
A498 renal = tested on: A498 renal
A549 NSCLC = tested on: A549 NSCLC
ACHN renal = tested on: ACHN renal
BT-549 breast = tested on: BT-549 breast
CAKI-1 renal = tested on: CAKI-1 renal
CCRF-CEM leukemia = tested on: CCRF-CEM leukemia
COLO 205 colon = tested on: COLO 205 colon
DU-145 prostate = tested on: DU-145 prostate
EKVX NSCLC = tested on: EKVX NSCLC
HCC-2998 colon = tested on: HCC-2998 colon
HCT-116 colon = tested on: HCT-116 colon
HCT-15 colon = tested on: HCT-15 colon
HL-60(TB) leukemia = tested on: HL-60(TB) leukemia
HOP-62 NSCLC = tested on: HOP-62 NSCLC
HOP-92 NSCLC = tested on: HOP-92 NSCLC
HS 578T breast = tested on: HS 578T breast
HT29 colon = tested on: HT29 colon
IGROV1 ovarian = tested on: IGROV1 ovarian
K-562 leukemia = tested on: K-562 leukemia
KM12 colon = tested on: KM12 colon
LOX IMVI melanoma = tested on: LOX IMVI melanoma
M14 melanoma = tested on: M14 melanoma
MALME-3M melanoma = tested on: MALME-3M melanoma
MCF7 breast = tested on: MCF7 breast
MDA-MB-231 breast = tested on: MDA-MB-231 breast
MDA-MB-435 = tested on: MDA-MB-435
MDA-N = tested on: MDA-N
MOLT-4 leukemia = tested on: MOLT-4 leukemia
NCI-H226 lung = tested on: NCI-H226 lung
NCI-H23 lung = tested on: NCI-H23 lung
NCI-H460 lung = tested on: NCI-H460 lung
NCI-H522 lung = tested on: NCI-H522 lung
NCI/ADR-RES ovarian = tested on: NCI/ADR-RES ovarian
OVCAR-3 ovarian = tested on: OVCAR-3 ovarian
OVCAR-4 ovarian = tested on: OVCAR-4 ovarian
OVCAR-5 ovarian = tested on: OVCAR-5 ovarian
OVCAR-8 ovarian = tested on: OVCAR-8 ovarian
PC-3 prostate = tested on: PC-3 prostate
RPMI-8226 leukemia = tested on: RPMI-8226 leukemia
RXF 393 renal = tested on: RXF 393 renal
SF-268 CNS = tested on: SF-268 CNS
SF-295 CNS = tested on: SF-295 CNS
SF-539 CNS = tested on: SF-539 CNS
SK-MEL-2 melanoma = tested on: SK-MEL-2 melanoma
SK-MEL-28 melanoma = tested on: SK-MEL-28 melanoma
SK-MEL-5 melanoma = tested on: SK-MEL-5 melanoma
SK-OV-3 ovarian = tested on: SK-OV-3 ovarian
SN12C renal = tested on: SN12C renal
SNB-19 CNS = tested on: SNB-19 CNS
SNB-75 CNS = tested on: SNB-75 CNS
SR leukemia = tested on: SR leukemia
SW-620 colon = tested on: SW-620 colon
T-47D breast = tested on: T-47D breast
TK-10 renal = tested on: TK-10 renal
U251 CNS = tested on: U251 CNS
UACC-257 melanoma = tested on: UACC-257 melanoma
UACC-62 melanoma = tested on: UACC-62 melanoma
UO-31 renal = tested on: UO-31 renal

`O=[N+]([O-])c1cc(C=NC23CC4CC(CC(C4)C2)C3)ccc1Cl` gave a TGI (786-0 renal) of 41.2 µM, a TGI (A498 renal) of over 100 µM and a TGI (A549 NSCLC) of over 100 µM. For the same compound, the TGI (ACHN renal) was 56.9 µM, the TGI (BT-549 breast) was 45.3 µM and the TGI (CAKI-1 renal) was 18.7 µM. The TGI (CCRF-CEM leukemia) was 7.97 µM, the TGI (COLO 205 colon) was over 70.3 µM and the TGI (DU-145 prostate) was over 60.4 µM. For the same compound, the TGI (EKVX NSCLC) was over 61.8 µM, the TGI (HCC-2998 colon) was 75.1 µM and the TGI (HCT-116 colon) was 19.5 µM. For the same compound, the TGI (HCT-15 colon) was 48.3 µM, the TGI (HL-60(TB) leukemia) was 8.28 µM and the TGI (HOP-62 NSCLC) was 17.7 µM. For the same compound, the TGI (HOP-92 NSCLC) was 60.5 µM, the TGI (HS 578T breast) was over 94 µM and the TGI (HT29 colon) was 39.8 µM. The TGI (IGROV1 ovarian) was 47.5 µM, the TGI (K-562 leukemia) was over 43.6 µM and the TGI (KM12 colon) was 55 µM. For the same compound, the TGI (LOX IMVI melanoma) was 36.9 µM, the TGI (M14 melanoma) was 26.1 µM and the TGI (MALME-3M melanoma) was 42.5 µM. It also gave a TGI (MCF7 breast) of 27.9 µM, a TGI (MDA-MB-231 breast) of 24.7 µM and a TGI (MDA-MB-435) of 42.2 µM. It also gave a TGI (MDA-N) of 32.3 µM, a TGI (MOLT-4 leukemia) of 27 µM and a TGI (NCI-H226 lung) of over 81.3 µM. The TGI (NCI-H23 lung) was 42.8 µM, the TGI (NCI-H460 lung) was over 71 µM and the TGI (NCI-H522 lung) was 32.7 µM. It also gave a TGI (NCI/ADR-RES ovarian) of 70.9 µM, a TGI (OVCAR-3 ovarian) of 33.9 µM and a TGI (OVCAR-4 ovarian) of 36.3 µM. For the same compound, the TGI (OVCAR-5 ovarian) was over 100 µM, the TGI (OVCAR-8 ovarian) was over 90.9 µM and the TGI (PC-3 prostate) was 47.5 µM. It also gave a TGI (RPMI-8226 leukemia) of 16.8 µM, a TGI (RXF 393 renal) of 37.2 µM and a TGI (SF-268 CNS) of over 85.9 µM. The TGI (SF-295 CNS) was 96.9 µM, the TGI (SF-539 CNS) was 55.7 µM and the TGI (SK-MEL-2 melanoma) was over 100 µM. For the same compound, the TGI (SK-MEL-28 melanoma) was 38 µM, the TGI (SK-MEL-5 melanoma) was 55.4 µM and the TGI (SK-OV-3 ovarian) was over 100 µM. The TGI (SN12C renal) was 35.2 µM, the TGI (SNB-19 CNS) was over 58.5 µM and the TGI (SNB-75 CNS) was over 100 µM. The TGI (SR leukemia) was 12.9 µM, the TGI (SW-620 colon) was 27.7 µM and the TGI (T-47D breast) was 40.8 µM. The TGI (TK-10 renal) was over 87.2 µM, the TGI (U251 CNS) was 41.6 µM and the TGI (UACC-257 melanoma) was 39.6 µM. For the same compound, the TGI (UACC-62 melanoma) was 20.9 µM and the TGI (UO-31 renal) was 15.8 µM.

Work on `O=CNc1ccc2c(c1)C(=O)c1ccccc1-2` yielded a TGI (786-0 renal) of over 100 µM, a TGI (A498 renal) of over 100 µM and a TGI (A549 NSCLC) of over 100 µM. It also gave a TGI (ACHN renal) of over 100 µM, a TGI (BT-549 breast) of over 100 µM and a TGI (CAKI-1 renal) of over 100 µM. The TGI (CCRF-CEM leukemia) was over 100 µM, the TGI (COLO 205 colon) was over 100 µM and the TGI (DU-145 prostate) was over 100 µM. It also gave a TGI (EKVX NSCLC) of 43.1 µM, a TGI (HCC-2998 colon) of over 100 µM and a TGI (HCT-116 colon) of over 100 µM. For the same compound, the TGI (HCT-15 colon) was over 100 µM, the TGI (HL-60(TB) leukemia) was over 100 µM and the TGI (HOP-62 NSCLC) was over 100 µM. For the same compound, the TGI (HOP-92 NSCLC) was over 100 µM, the TGI (HS 578T breast) was over 100 µM and the TGI (HT29 colon) was over 100 µM. It also gave a TGI (IGROV1 ovarian) of over 100 µM, a TGI (K-562 leukemia) of over 100 µM and a TGI (KM12 colon) of over 100 µM. It also gave a TGI (LOX IMVI melanoma) of over 100 µM, a TGI (M14 melanoma) of over 100 µM and a TGI (MCF7 breast) of over 100 µM. The TGI (MDA-MB-231 breast) was over 100 µM, the TGI (MDA-MB-435) was over 100 µM and the TGI (MDA-N) was over 100 µM. For the same compound, the TGI (MOLT-4 leukemia) was over 100 µM, the TGI (NCI-H226 lung) was over 100 µM and the TGI (NCI-H23 lung) was over 100 µM. The TGI (NCI-H460 lung) was over 100 µM, the TGI (NCI-H522 lung) was over 100 µM and the TGI (NCI/ADR-RES ovarian) was over 100 µM. For the same compound, the TGI (OVCAR-3 ovarian) was over 100 µM, the TGI (OVCAR-4 ovarian) was over 100 µM and the TGI (OVCAR-5 ovarian) was over 100 µM. It also gave a TGI (OVCAR-8 ovarian) of over 100 µM, a TGI (PC-3 prostate) of over 100 µM and a TGI (RPMI-8226 leukemia) of over 100 µM. The TGI (RXF 393 renal) was over 100 µM, the TGI (SF-268 CNS) was over 100 µM and the TGI (SF-295 CNS) was over 100 µM. The TGI (SF-539 CNS) was over 100 µM, the TGI (SK-MEL-2 melanoma) was over 100 µM and the TGI (SK-MEL-28 melanoma) was over 100 µM. It also gave a TGI (SK-MEL-5 melanoma) of over 100 µM, a TGI (SK-OV-3 ovarian) of over 100 µM and a TGI (SN12C renal) of over 100 µM. For the same compound, the TGI (SNB-19 CNS) was over 100 µM, the TGI (SNB-75 CNS) was over 100 µM and the TGI (SR leukemia) was over 100 µM. It also gave a TGI (SW-620 colon) of over 100 µM, a TGI (T-47D breast) of over 100 µM and a TGI (TK-10 renal) of over 100 µM. For the same compound, the TGI (U251 CNS) was over 100 µM, the TGI (UACC-257 melanoma) was over 100 µM and the TGI (UACC-62 melanoma) was over 100 µM. It also gave a TGI (UO-31 renal) of over 100 µM.

`COc1nncc2[nH]c(-c3ccccc3)cc12` showed a TGI (786-0 renal) of over 100 µM, a TGI (A498 renal) of over 100 µM and a TGI (A549 NSCLC) of over 100 µM. The TGI (ACHN renal) was over 100 µM, the TGI (BT-549 breast) was over 100 µM and the TGI (CAKI-1 renal) was over 100 µM. The TGI (CCRF-CEM leukemia) was over 100 µM, the TGI (COLO 205 colon) was over 100 µM and the TGI (DU-145 prostate) was over 100 µM. For the same compound, the TGI (EKVX NSCLC) was over 100 µM, the TGI (HCC-2998 colon) was over 100 µM and the TGI (HCT-116 colon) was over 100 µM. For the same compound, the TGI (HCT-15 colon) was over 100 µM, the TGI (HL-60(TB) leukemia) was over 100 µM and the TGI (HOP-62 NSCLC) was over 100 µM. The TGI (HOP-92 NSCLC) was over 100 µM, the TGI (HS 578T breast) was over 100 µM and the TGI (HT29 colon) was over 100 µM. For the same compound, the TGI (IGROV1 ovarian) was over 100 µM, the TGI (K-562 leukemia) was over 100 µM and the TGI (KM12 colon) was over 100 µM. The TGI (LOX IMVI melanoma) was over 100 µM, the TGI (M14 melanoma) was over 100 µM and the TGI (MALME-3M melanoma) was over 100 µM. It also gave a TGI (MCF7 breast) of over 100 µM, a TGI (MDA-MB-231 breast) of over 100 µM and a TGI (MDA-MB-435) of over 100 µM. For the same compound, the TGI (MDA-N) was over 100 µM, the TGI (MOLT-4 leukemia) was 18.1 µM and the TGI (NCI-H226 lung) was over 100 µM. It also gave a TGI (NCI-H23 lung) of over 100 µM, a TGI (NCI-H460 lung) of over 100 µM and a TGI (NCI/ADR-RES ovarian) of over 100 µM. It also gave a TGI (OVCAR-3 ovarian) of over 100 µM, a TGI (OVCAR-4 ovarian) of over 100 µM and a TGI (OVCAR-5 ovarian) of over 100 µM. It also gave a TGI (OVCAR-8 ovarian) of over 100 µM, a TGI (PC-3 prostate) of over 100 µM and a TGI (RPMI-8226 leukemia) of over 100 µM. For the same compound, the TGI (RXF 393 renal) was over 100 µM, the TGI (SF-268 CNS) was over 100 µM and the TGI (SF-295 CNS) was over 100 µM. It also gave a TGI (SF-539 CNS) of over 100 µM, a TGI (SK-MEL-2 melanoma) of over 100 µM and a TGI (SK-MEL-5 melanoma) of over 100 µM. For the same compound, the TGI (SK-OV-3 ovarian) was over 100 µM, the TGI (SN12C renal) was over 100 µM and the TGI (SNB-19 CNS) was over 100 µM. For the same compound, the TGI (SNB-75 CNS) was over 100 µM, the TGI (SR leukemia) was over 100 µM and the TGI (SW-620 colon) was over 100 µM. It also gave a TGI (T-47D breast) of over 100 µM, a TGI (TK-10 renal) of over 100 µM and a TGI (U251 CNS) of over 100 µM. It also gave a TGI (UACC-257 melanoma) of over 100 µM, a TGI (UACC-62 melanoma) of over 100 µM and a TGI (UO-31 renal) of over 100 µM.
